Measured values from paper PMC10999543, “Identification of kinase modulators as host-directed therapeutics against intracellular methicillin-resistant Staphylococcus aureus” (Frontiers in Cellular and Infection Microbiology, 2024).

How the values were obtained:
planktonic MRSA cultures = experiment: Bacterial growth assay in cell-free planktonic MRSA cultures (OD600); format: cell-based, Staphylococcus aureus; details: for direct antibiotic effects against MRSA: planktonic cultures
Protocol: […] The absorbance was measured using an EnVision plate reader (PerkinElmer). The plates were incubated at 37°C overnight and the absorbance was measured again the next day. Real-time measurement of bioluminescence by the MRSA-lux strain was performed in a white flat-bottom 96-wells plate using a SpectraMax i3x plate reader and an integration time set at 9000 ms.

[1] = system: intracellular MRSA in HeLa cells; experiment: Gentamicin protection assay with CFU count in MRSA-infected HeLa cells; format: cell-based, Staphylococcus aureus; details: HeLa cells; for effect on intracellular MRSA burden: 991 used at 25 μM, rapamycin at 1 μM, Figure 5J
Protocol: The cells were resuspended in cell culture medium without antibiotics, seeded with 10,000 cells/well into Costar flat-bottom 96-well plates (Corning, Amsterdam, the Netherlands), and were incubated overnight at 37°C/5% CO2. The next day, the bacteria were centrifuged at ≥1800 g for 15 min and resuspended in cold PBS + 5 mM ethylenediaminetetraacetic acid (EDTA). The number of CFUs present in the bacterial suspension was estimated from the optical density at 600 nm (OD600) by assuming 8x10^8 CFUs to be present in a bacterial suspension with OD600 = 1, based on prior titrations. The bacterial suspension was diluted in cell culture medium without antibiotics and added to the cells. Accuracy of the multiplicity of infection (MOI) was validated by plating serial dilutions of the MRSA inoculums on Difco TS agar plates (BD Biosciences). The calculated mean MOI throughout all experiments was 6.8 ± 4.6 (mean ± SD). Infected cells were centrifuged for 3 min at 150 g and incubated for 1 hour at 37°C/5% CO2. Next, the cells were incubated with fresh cell culture medium supplemented with 30 µg/ml gentamicin sulphate (Lonza BioWhittaker, Basel, Switzerland) for 15 min at 37°C/5% CO2 to kill residual extracellular bacteria. Infected cells were incubated overnight at 37°C/5% CO2 in cell culture medium in the presence of kinase inhibitors and 5 µg/ml gentamicin sulphate-containing medium to prevent the growth of extracellular bacteria. The solvent of the compounds, DMSO, was used at equal % v/v as a negative control. For the screen, each compound was tested in triplicate, on separate cell culture plates, resulting in triplicate values for each kinase inhibitor.
Infected cells were lysed in sterile water + 0.05% UltraPure SDS solution (Invitrogen, ThermoFisher Scientific) to release intracellular bacteria. Bacterial suspensions and lysates of cells infected with MRSA were 5-fold serially diluted and 10-μl drops were plated on square TS agar plates. The plates were left to dry and incubated overnight at 37°C/5% CO2.

HER4 = system: HER4; design: method as in Drewry et al., 2017; details: PKIS2, KinomeScan, ref Drewry et al., 2017; cited from earlier work
HER2 = system: HER2; design: method as in Drewry et al., 2017; details: PKIS2, KinomeScan, ref Drewry et al., 2017; cited from earlier work
EGFR = system: EGFR; design: method as in Drewry et al., 2017; details: PKIS2, KinomeScan, ref Drewry et al., 2017; cited from earlier work
HeLa cells = experiment: Compound screen by flow cytometry: HeLa cell count as surrogate readout of cell viability (z-scoreHeLa); format: cell-based, human
In short: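 HeLa cells were infected with GFP-MRSA (mean MOI 6.8 ± 4.6) for 1 h, and extracellular bacteria were killed with 30 µg/ml gentamicin. Cells were then incubated overnight with kinase inhibitors in 5 µg/ml gentamicin, in triplicate against DMSO controls. Flow-cytometric cell count served as a viability surrogate, expressed as a plate z-score.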

intracellular MRSA = format: cell-based, Staphylococcus aureus
In short: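 HeLa cells infected with GFP-MRSA (MOI ~6.8), gentamicin-cleared, then incubated overnight at 37°C with inhibitors plus 5 µg/ml gentamicin; DMSO as negative control, triplicates. Flow cytometry gave % GFP-positive cells and cell count (viability surrogate); hits by plate z-score (MRSA ≤ -2, HeLa count ≥ -3).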

MRSA = details: especially against MRSA biofilm formation; ref Liu et al., 2022; cited from earlier work

## Cc1ccc(Oc2nc3cc(-c4ccc5c(ccn5C)c4)c(Cl)cc3[nH]2)cc1C(=O)O [Compound 991, reference compound]
Planktonic MRSA cultures; Supplementary Figure S5
  direct antibiotic effects against MRSA: shows direct antibiotic effects
[1]
  effect on intracellular MRSA burden: able to reduce the intracellular MRSA burden similar to GW296115X

## CS(=O)(=O)CCNCc1nc(-c2ccc3ncnc(Nc4ccc(OCc5ccccc5)c(Cl)c4)c3c2)cs1 [GW582764]
HER4
  % inhibition at 1 µM HER4: 97.8%
HER2
  % inhibition at 1 µM HER2: 100%

## CS(=O)(=O)CCNCc1nc(-c2ccc3ncnc(Nc4ccc(OCc5cccc(F)c5)c(Cl)c4)c3c2)cs1 [GW583340]
EGFR
  % inhibition at 1 µM EGFR: 99.9%
HER4
  % inhibition at 1 µM HER4: 99.1%
HER2
  % inhibition at 1 µM HER2: 99.7%

## NC(=O)c1cccc(Nc2nccc(Nc3ccc(Oc4cccc(Cl)c4)c(Cl)c3)n2)c1 [GW659008A]
Planktonic MRSA cultures; Staphylococcus aureus, MRSA, read-out: inhibition of planktonic MRSA growth
  inhibition at 10 µM: 67.3%
HeLa cells; PKIS compound screen raw data, HeLa cell count, replicate 1
  cell count rep 1: 25296
HeLa cells; PKIS compound screen raw data, HeLa cell count, replicate 2
  cell count rep 2: 38684
HeLa cells; PKIS compound screen raw data, HeLa cell count, replicate 3
  cell count rep 3: 42387
HeLa cells; PKIS compound screen, HeLa cell count, mean of 3 replicates
  z-scoreHeLa mean: 0.60
HeLa cells; PKIS compound screen, HeLa cell count, replicate 1
  z-scoreHeLa rep 1: 0.78
HeLa cells; PKIS compound screen, HeLa cell count, replicate 2
  z-scoreHeLa rep 2: 0.73
HeLa cells; PKIS compound screen, HeLa cell count, replicate 3
  z-scoreHeLa rep 3: 0.30
HeLa cells; PKIS compound screen, Yes/No call on z-scoreHeLa
  cell death: No
Intracellular MRSA; PKIS compound screen raw data, MRSA-infected HeLa cells, replicate 1
  %GFP+ rep 1: 9.2%
Intracellular MRSA; PKIS compound screen raw data, MRSA-infected HeLa cells, replicate 2
  %GFP+ rep 2: 10.5%
Intracellular MRSA; PKIS compound screen raw data, MRSA-infected HeLa cells, replicate 3
  %GFP+ rep 3: 10.3%
Intracellular MRSA; PKIS compound screen, MRSA-infected HeLa cells, mean of 3 replicates
  z-scoreMRSA+ mean: -2.69
Intracellular MRSA; PKIS compound screen, MRSA-infected HeLa cells, replicate 1
  z-scoreMRSA+ rep 1: -2.76
Intracellular MRSA; PKIS compound screen, MRSA-infected HeLa cells, replicate 2
  z-scoreMRSA+ rep 2: -2.41
Intracellular MRSA; PKIS compound screen, MRSA-infected HeLa cells, replicate 3
  z-scoreMRSA+ rep 3: -2.89
Intracellular MRSA; PKIS compound screen, Yes/No call (effect without cell death)
  hit: Yes
Intracellular MRSA; PKIS compound screen, Yes/No call on z-scoreMRSA+
  effect: Yes

## CO/C1=C\C(C)=C\[C@@H](C)[C@@H](O)[C@@H](C)C/C(C)=C/C=C/[C@H](OC)[C@@H]([C@@H](C)[C@@H](O)[C@H](C)[C@@]2(O)C[C@@H](O)[C@H](C)[C@@H](C(C)C)O2)OC1=O [bafilomycin A1, reference compound]
Planktonic MRSA cultures; Supplementary Figure S5
  direct antibiotic effects against MRSA: not the case
[1]; bafilomycin A1 alone (used at 100 nM)
  reduction in the intracellular bacterial burden: 70%

## CS(=O)(=O)CCNCc1ccc(-c2ccc3ncnc(Nc4ccc(OCc5cccc(F)c5)c(Cl)c4)c3c2)o1 [lapatinib, reference compound]
Planktonic MRSA cultures; up to 100 µM concentration, Supplementary Figure S5
  effect on planktonic MRSA growth (direct antibiotic effect): did not observe this direct effect
MRSA
  concentrations resulting in direct antimicrobial effects: above 10 µM
[1]; 3 µM
  increase in the intracellular bacterial burden: 80%
[1]; 10 and 30 µM
  activity against intracellular MRSA: only modestly active

## CO[C@H]1C[C@@H]2CC[C@@H](C)[C@@](O)(O2)C(=O)C(=O)N2CCCC[C@H]2C(=O)O[C@H]([C@H](C)C[C@@H]2CC[C@@H](O)[C@H](OC)C2)CC(=O)[C@H](C)/C=C(\C)[C@@H](O)[C@@H](OC)C(=O)[C@H](C)C[C@H](C)/C=C/C=C/C=C/1C [rapamycin, reference compound]
Planktonic MRSA cultures; Supplementary Figure S5
  direct antibiotic effects against MRSA: not the case
[1]
  effect on intracellular MRSA burden: able to reduce the intracellular MRSA burden similar to GW296115X
